Measured values: ChEMBL document CHEMBL1132043, “4-N-linked-heterocyclic piperidine derivatives with high affinity and selectivity for human dopamine D4 receptors” (Bioorg Med Chem Lett, 1999)

Experiments:
Experiment in all cases: biochemical
D(2) dopamine receptor = D(2) dopamine receptor (Homo sapiens, UniProt P14416)
Description: Displacement of [3H]spiperone from human Dopamine receptor D2 expressed in CHO cells

D(4) dopamine receptor = target: T1, D(4) dopamine receptor (Homo sapiens, UniProt P21917)
T1 sequence (P21917 whole entry): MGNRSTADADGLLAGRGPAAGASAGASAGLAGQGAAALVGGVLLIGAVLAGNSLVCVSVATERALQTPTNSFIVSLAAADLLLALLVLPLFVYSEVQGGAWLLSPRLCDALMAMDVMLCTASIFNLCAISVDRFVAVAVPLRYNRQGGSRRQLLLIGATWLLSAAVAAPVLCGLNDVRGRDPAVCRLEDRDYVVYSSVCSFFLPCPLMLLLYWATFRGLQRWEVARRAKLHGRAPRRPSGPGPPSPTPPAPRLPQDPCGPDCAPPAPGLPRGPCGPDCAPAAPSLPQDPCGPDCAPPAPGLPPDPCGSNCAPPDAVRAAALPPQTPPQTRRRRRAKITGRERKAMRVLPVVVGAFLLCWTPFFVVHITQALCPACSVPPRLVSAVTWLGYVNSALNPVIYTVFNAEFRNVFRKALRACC
Description: Displacement of [3H]spiperone from human Dopamine receptor D4 expressed in HEK293 cells

D(3) dopamine receptor = D(3) dopamine receptor (Homo sapiens, UniProt P35462)
D(3) dopamine receptor, sequence (P35462 whole entry): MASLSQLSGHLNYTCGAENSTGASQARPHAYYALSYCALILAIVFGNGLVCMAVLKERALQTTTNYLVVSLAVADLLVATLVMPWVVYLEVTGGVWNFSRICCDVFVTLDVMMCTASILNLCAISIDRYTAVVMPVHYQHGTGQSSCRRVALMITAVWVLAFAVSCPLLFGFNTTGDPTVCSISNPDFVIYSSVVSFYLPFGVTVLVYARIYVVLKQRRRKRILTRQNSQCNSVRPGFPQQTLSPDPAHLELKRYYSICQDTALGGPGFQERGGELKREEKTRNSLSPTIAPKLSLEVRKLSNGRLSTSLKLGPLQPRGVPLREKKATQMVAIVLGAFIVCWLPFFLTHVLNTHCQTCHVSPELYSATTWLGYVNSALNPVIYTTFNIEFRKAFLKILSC
Description: Displacement of [3H]spiperone from human Dopamine receptor D3 expressed in HEK293 cells

D(2) dopamine receptor, sequence (P14416 whole entry): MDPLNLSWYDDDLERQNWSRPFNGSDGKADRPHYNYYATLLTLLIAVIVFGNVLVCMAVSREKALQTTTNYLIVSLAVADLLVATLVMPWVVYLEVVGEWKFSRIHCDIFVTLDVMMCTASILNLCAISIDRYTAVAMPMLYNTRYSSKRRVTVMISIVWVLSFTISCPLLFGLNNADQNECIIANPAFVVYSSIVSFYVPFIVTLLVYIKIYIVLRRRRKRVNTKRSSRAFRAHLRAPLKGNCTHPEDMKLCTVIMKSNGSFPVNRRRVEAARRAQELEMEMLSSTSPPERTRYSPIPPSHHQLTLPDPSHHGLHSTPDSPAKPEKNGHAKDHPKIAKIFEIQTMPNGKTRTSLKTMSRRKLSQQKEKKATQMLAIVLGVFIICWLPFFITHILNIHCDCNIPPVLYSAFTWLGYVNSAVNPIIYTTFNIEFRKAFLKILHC

For `c1ccc(CN2CCC(n3nccc3-c3ccccc3)CC2)cc1`, which Ki (D(2) dopamine receptor) is on record?
The Ki was 510 nM.

What about the Ki (D(4) dopamine receptor) of the same compound?
Its Ki is 15 nM.

And the Ki (D(3) dopamine receptor)?
The Ki was 810 nM.

Which results are given for `Cc1c(-c2ccccc2)cnn1C1CCN(Cc2cccc(Cl)c2)CC1`?
Ki (D(2) dopamine receptor): 370 nM; Ki (D(4) dopamine receptor): 3.1 nM; Ki (D(3) dopamine receptor): 820 nM

Which results are given for `Cc1c(-c2ccccc2)cnn1C1CCN(Cc2cccc(C#N)c2)CC1`?
Ki (D(2) dopamine receptor): > 1700 nM; Ki (D(4) dopamine receptor): 5.2 nM; Ki (D(3) dopamine receptor): 4400 nM

For `c1ccc(CN2CCC(n3cc(-c4ccccc4)nn3)CC2)cc1`, which Ki (D(2) dopamine receptor) is on record?
The Ki was 460 nM.

And the Ki (D(4) dopamine receptor)?
The Ki was 32 nM.

What about the Ki (D(3) dopamine receptor) of the same compound?
The Ki was 1300 nM.

`c1ccc(CN2CCC(n3nnc(-c4ccccc4)n3)CC2)cc1` was tested. Which Ki (D(2) dopamine receptor) did it give?
Its Ki is 1100 nM.

What about the Ki (D(4) dopamine receptor) of the same compound?
Its Ki is 27 nM.

What about the Ki (D(3) dopamine receptor) of the same compound?
Its Ki is 1400 nM.

Which results are given for `c1ccc(CN2CCC(n3nnnc3-c3ccccc3)CC2)cc1`?
Ki (D(2) dopamine receptor): > 1800 nM; Ki (D(4) dopamine receptor): 1200 nM; Ki (D(3) dopamine receptor): > 4400 nM

For `Cc1cc(-c2ccccc2)n(C2CCN(Cc3ccccc3)CC2)n1`, which Ki (D(2) dopamine receptor) is on record?
The Ki was 310 nM.

What about the Ki (D(4) dopamine receptor) of the same compound?
Its Ki is 140 nM.

And the Ki (D(3) dopamine receptor)?
The Ki was 3000 nM.

For `Cc1c(-c2ccccc2)cnn1C1CCN(Cc2ccccc2)CC1`, which Ki (D(2) dopamine receptor) is on record?
The Ki was 140 nM.

What about the Ki (D(4) dopamine receptor) of the same compound?
Its Ki is 2.5 nM.

And the Ki (D(3) dopamine receptor)?
Its Ki is 450 nM.

`Cc1nnn(C2CCN(Cc3ccccc3)CC2)c1-c1ccccc1` was tested. Which Ki (D(2) dopamine receptor) did it give?
The Ki was 1200 nM.

What about the Ki (D(4) dopamine receptor) of the same compound?
The Ki was 18 nM.

And the Ki (D(3) dopamine receptor)?
Its Ki is 2200 nM.

`Cc1nn(C2CCN(Cc3cccc(C#N)c3)CC2)cc1-c1ccccc1` was tested. Which Ki (D(2) dopamine receptor) did it give?
Its Ki is 15 nM.

What about the Ki (D(4) dopamine receptor) of the same compound?
Its Ki is 1.2 nM.

And the Ki (D(3) dopamine receptor)?
Its Ki is 260 nM.

For `Cc1nn(C2CCN(Cc3ccccc3)CC2)cc1-c1ccccc1`, which Ki (D(2) dopamine receptor) is on record?
The Ki was 6.1 nM.

What about the Ki (D(4) dopamine receptor) of the same compound?
Its Ki is 0.39 nM.

And the Ki (D(3) dopamine receptor)?
Its Ki is 28 nM.

How did the Ki (D(2) dopamine receptor) turn out when `Cc1c(-c2ccccc2)n[nH]c1C1CCN(Cc2ccccc2)CC1` was run?
Its Ki is 90 nM.

And the Ki (D(4) dopamine receptor)?
Its Ki is 4.7 nM.

And the Ki (D(3) dopamine receptor)?
The Ki was 450 nM.

With `Cc1c(-c2ccccc2)nnn1C1CCN(Cc2ccccc2)CC1` as the compound, how does the Ki (D(2) dopamine receptor) read?
Its Ki is 1600 nM.

What about the Ki (D(4) dopamine receptor) of the same compound?
The Ki was 17 nM.

And the Ki (D(3) dopamine receptor)?
Its Ki is 2500 nM.

Which results are given for `c1ccc(CN2CCC(n3cnc(-c4ccccc4)c3)CC2)cc1`?
Ki (D(2) dopamine receptor): 450 nM; Ki (D(4) dopamine receptor): 40 nM; Ki (D(3) dopamine receptor): 740 nM

Which results are given for `Cc1nn(C2CCN(Cc3cccc(Cl)c3)CC2)cc1-c1ccccc1`?
Ki (D(2) dopamine receptor): 15 nM; Ki (D(4) dopamine receptor): 3.1 nM; Ki (D(3) dopamine receptor): 120 nM
